Results taken from patent US20220287935A1, “CANNABINOID-CONTAINING SKIN CARE COMPOSITIONS” (Cannasmetics Ltd., priority 2021, published 2022).

Experiments:
[1] = tested on: TNFα secretion from LPS-stimulated THP-1 cells; assay: TNFα secretion from LPS-stimulated THP-1 cells (HTRF); format: cell-based, Human; conditions: for ratio of TNFα secretion to cells viability: alone; for TNFα secretion (percentage of the control): each alone, highest concentration, FIG. 2A
Procedure: (§1) Human THP-1 monocytes were seeded in a 96-well plate (Eppendorf) at a density of 3×10^5 cells/well (n=4) in 100 μl cell specific media and was differentiated using phorbol-12-myristate 13-acetate (PMA) (Sigma-Aldrich) at a final concentration of 200 nM. PMA supplemented media was removed after 72 hours. Cells were then washed twice with PBS and rested in fresh PMA-free media for further 24 hours in order to obtain phenotypic characteristics of macrophages (Daigneault et al., 2010, PLoS One, 5, e8668).
(§2) After 24 hours, cells were stimulated by Lipopolysaccharides (LPS) at a final concentration of 1μg/ml and were treated with the samples using specific media containing 5% FBS (100 μL of media solution containing the tested materials at the indicated concentration; see, Example 1).
(§3) After 24 hours, the cells supernatants were harvested and diluted up to 5 times in working media to avoid the hook effect. HTRF assays were performed in white 96-well plate (CisBio Bioassays) with a total working volume of 20 μL. All HTRF reagents were purchased from CisBio Bioassays and reconstituted according to the supplier protocols. For each assay 16 μL of diluted supernatants samples were incubated with 4 μL mixed solution containing donor and acceptor antibodies. Antibodies for the detection of TNFα and IL6 were used.
(§4) After 2 hours incubation, HTRF signals were measured using SPARK® multimode microplate reader with an excitation filter at 320 nm and fluorescence wavelength measurement at 620 and 665 nm, an integration delay of 60 μs and an integration time of 400 μs. Results were analyzed with a two-wavelength signal ratio: [intensity (665 nm)/intensity (620 nm)]*104. Calculation and analysis of cytokines release was performed according to the supplier protocols and using the 4PL 1/Y2 formula in GraphPad Prism software.

[2] = tested on: HaCaT cells; assay: Viability of HaCaT cells, MTT assay; format: cell-based; conditions: alone, FIG. 8A
Procedure: (§5) Cell lines were cultured according to standard mammalian tissue culture protocols and sterile technique. Human monocytes THP-1 cells were cultured in RPMI medium 1640. HaCaT cells were cultured in DMEME medium. All media was supplemented with 10% fetal bovine serum, streptomycin ([…]), penicillin (100 U/ml) and Nystatin (12.5 U/ml). Cells were incubated in 5% CO2 at 37° C. All tissue culture cells were maintained in 75 cm^2 cell culture treated flask (Eppendorf) and all the media and supplements were obtained from Biological Industries. Treatment were performed by plating cells in a 96 micro well delta surface plates (Eppendorf) in a starting confluence of 1×10^4 cells/well.
(§6) The viability of the cells following treatment was determined using a commercially available MTT assay kit (Abcam, ab146345) and performed according to manufacturer's instructions. Briefly, cells were seeded in a 96-well plate at a density of 1×10^4 cells/well (n=4) in 100 μl cell specific media. After overnight incubation, cells were exposed to varying concentrations of isolated components (CBD, CBG and PSO, each alone) and combination samples as described in Example 1, in 100 μl of specific media, by adding a stock solution to the medium in amount that provides the indicated concentration (see, Tables 1, 2A and 2B). Then, plates were incubated in a humidified atmosphere containing 5% CO2 in air at 37° C. for 24 hours. According to the MTT standard protocol, after 24 hours treatment, the media was removed, and all cells were incubated with serum-free media containing 0.5 mg/ml MTT for 4 hours at the incubator. The MTT purple crystals formed by the viable cells were dissolved using isopropanol containing 0.04 mol/L HCl. The quantification was determined by measuring the optical density at 570 nm in a spectrophotometer reader (Spark, Tecan). Results are presented as proportional viability (%) by comparing between treated and untreated groups.
(§7) Cytotoxic potential of an extract was determined according to the following criteria:
Cytotoxic: Viability is reduced to less than 70% of vehicle control. […]

[3] = tested on: HaCaT cells; assay: Cellular ROS production from HaCaT cells in the presence of H2O2 (DCFDA assay); format: cell-based; conditions: each component alone, 5 hours, FIG. 9A
Procedure: Cellular ROS production was measured using a DCFDA assay kit (Abcam, ab113851)) according to the manufacturer's protocol. DCFDA (2′,7′-dichlorofluorescein diacetate), a cell-permeable fluorogenic dye, is deacetylated to a non-fluorescent compound by cellular esterases and later oxidized into highly fluorescent DCF (2′,7′-dichlorofluorescein) by ROS, allowing measurement of hydroxyl, peroxyl and other ROS activity within the cell.
HaCaT cells were seeded at a density of 2.5×10^4 for 24 hours on 96-well plates. After 24 hours, the cells were washed twice with 1× buffer assay and then incubated with 25 μM DCFDA in 1× buffer assay in a 37° C. incubator for 45 minutes. After two washes with 1× buffer assay, the cells were exposed to the tested samples and to 0.25 M H202, each added separately to the medium.
Cell fluorescence in the 96-well plates was measured at 488 nm excitation and 525 nm emission using a Tecan spark plate reader (Tecan US, Inc. Morrisville, NC), 5 hours after the addition of the tested samples or sample combinations.
The control used as reference are cells treated only with H2O2. The results are shown as percentage of the control.

[4] = tested on: IL6 secretion from LPS-stimulated THP-1 cells; assay: IL6 secretion from LPS-stimulated THP-1 cells (HTRF); format: cell-based, Human; conditions: alone
Procedure: as §1, §2, §3, §4

[5] = Viability of THP-1 cells, MTT assay; format: cell-based, Human; conditions: human, THP-1 cells (monocytes); for viability at 24 h: CBD and CBG alone, treatments reported with the IL6 data, read-out: viability levels
Procedure: as §5, §6, §7
(§8) Cytotoxic: Viability is reduced to less than 70% of vehicle control.
(§9) Non-cytotoxic: Viability is >70% of vehicle control

[6] = tested on: THP-1 cells; assay: Viability of THP-1 cells, MTT assay; format: cell-based, Human; conditions: 24 hours
Procedure: as §5, §6, §7, §8, §9

[7] = alone, reported with the TNFα data
[8] = each component alone, all tested concentrations, FIG. 1A-B

SMILES | ratio of TNFα secretion to cells viability ([1]; 10 μM) | ratio of TNFα secretion to cells viability ([1]; 20 μM) | ratio of TNFα secretion to cells viability ([1]; lowest concentration, FIG. 2B) | TNFα secretion (percentage of the control) [1] | toxicity to keratinocyte cells ([2]; high concentration, e.g. 40 μM) | viability of HaCaT cells (toxicity) ([2]; higher concentration) | ROS production from HaCaT cells, effect relative to the solvent (ethanol) [3] | ratio of IL6 secretion to cells viability ([4]; lowest tested concentration of 10 μM) | viability at 24 h [5] [%] | viability at 24 h, 10 µM ([5]; alone, 10 μM, reported with the TNFα data) [%] | viability at 24 h, 20 µM [5, 7] [%] | THP-1 cells viability ([6]; 20 μM, FIG. 1A) | THP-1 cells viability [6, 8] | ratio of TNFα secretion to cells viability ([1]; medium concentration, FIG. 2B) | toxicity to keratinocyte cells ([2]; only at a high concentration) | ratio of IL6 secretion to cells viability ([4]; 40 μM) | ratio between IL-6 secretion and viability ([4]; highest concentration, FIG. 5B)
C=C(C)[C@@H]1CCC(C)=C[C@H]1c1c(O)cc(CCCCC)cc1O [CBD, cannabidiol] | about 0.6 | about 0.6 | lowest ratio | elevation of TNFα secretion | toxic | toxic | very mild effect | 0.23 | > 140 | 140 | 140 | most pronounced effect | enhanced viability | – | – | – | –
CCCCCc1cc(O)c(C/C=C(\C)CCC=C(C)C)c(O)c1 [CBG, cannabigerol] | – | about 0.6 | – | elevation of TNFα secretion | – | – | very mild effect | – | > 140 | – | 140 | – | enhanced viability | lowest ratio | mild toxicity | 0.29 | high reduction of the ratio
